Source: US10689394B2, “Thieno[2,3-b]pyridine derivative, quinoline derivative, and use thereof” (The University of Tokyo, priority 2016, dated 2020)

These compounds were tested against T1, binding between ALS-related mutant SOD1 (Flag-SOD1 G93A) and Derlin-1 (Derlin-1-HA) (Homo sapiens, UniProt P00441+Q9BUN8, G94A) (assay: Cell-based co-immunoprecipitation assay of mutant SOD1 (G93A)-Derlin-1 binding). Conditions: assay concentration 2.6 μM; HEK293A cells overexpressing Flag-SOD1 G93A and Derlin-1-HA.
T1 construct: expressed in transfected cells; host or cells: HEK293A
Parameters: key to Activity value (score): a compound exhibiting no inhibitory activity is set at 0; a compound exhibiting inhibitory activity is set at 1; a compound exhibiting significant inhibitory activity is set at 2; a compound having higher inhibitory activity than the compound of Example 1 is set at 3
Protocol: As cells, human embryonic kidney-derived, Human Embryonic Kidney 293A (HEK293A) cells were used. The cells were cultured in High Glucose Dulbecco's modified Eagle's medium (DMEM: 4.5 mg/ml glucose, Sigma) supplemented with complement-inactivated 10% fetal bovine serum (FBS, Vitromex) and 100 units/mL Penicillin G (Meiji), which was placed in an incubator set at conditions of 37° C. and 5% CO2.
Transfection into the HEK293A cells was carried out using PEI-Max (Polyscience) at a ratio of 3 μL of PEI-Max to 1 μg of plasmid. DMEM was mixed with PEI-Max, and the mixture was then left at rest for 5 minutes. Thereafter, the reaction mixture was added to the plasmid DNA dissolved in DMEM, and the thus obtained mixture was further left at rest for 15 minutes. After seeding, the culture was carried out for 12 to 24 hours, and the resultant was then added to a culture medium of cells, in which the medium had been exchanged with DMEM supplemented only with 10% FBS.
pcDNA3.0-Derlin-1-HA, pcDNA3.0-Flag-SOD1 G93A, and 123 types of other mutants.
In the lysis of HEK293A cells for use in a co-immunoprecipitation experiment, an IP lysis buffer (20 mM Tris-HCl (pH 7.5), 150 mM NaCl, 10 mM EDTA (pH 8.0), 1% Triton-X 100, 5 μg/mL leupeptin, and 1 mM phenylmethylsulfonyl fluoride) was used.
After the transfection on a 24-well plate, the cells were cultured for 12 hours or 24 hours, and the obtained cell culture was exchanged with 200 μL of medium. Thereafter, 1% DMSO or various types of compounds having each different concentration were added into the culture. Thirty-six hours or twenty-four hours later, the cells were incubated in the IP lysis buffer (300 μL/well) at 4° C. for 25 minutes, so that the cells were lysed. The cell lysate was centrifuged at 4° C. at 15000 rpm for 10 minutes, and a supernatant was then recovered. To this supernatant, Anti-Flag M2 affinity gel was added in a liquid amount of 20 μL, and they were allowed to react with each other by subjecting the obtained mixture to inversion mixing at 4° C. for 25 minutes. After completion of the reaction, a supernatant was removed, and the residue was washed twice with High salt wash buffer (1% Triton X 100, 500 mM NaCl, 20 mM Tris-HCl (pH 7.5), and 5 mM EGTA), and was then washed once with Low salt wash buffer (150 mM NaCl, 20 mM Tris-HCl (pH 7.5), and 5 mM EGTA). Finally, 50 μL of a 2×SDS sample buffer was added to the resultant, and the obtained mixture was then boiled at 98° C. for 3 minutes to obtain an SDS-PAGE sample. Regarding the lysate, a 2×SDS sample buffer was added in an amount equal to the supernatant, and the obtained mixture was then boiled at 98° C. for 3 minutes to obtain an SDS-PAGE sample.
After completion of SDS-PAGE, a protein was transferred from the gel into a polyvinylidene difluoride membrane (PVDF) ([…], Pall), and was then blocked with TBS-T (150 mM NaCl, 50 mM Tris-HCl (pH 8.0), and 0.05% Tween 20) supplemented with 5% skimmed milk at room temperature for 2 hours or more. Thereafter, a primary antibody diluted with TBS-T supplemented with 5% bovine serum albumin and 0.1% NaN3 was allowed to bind to each molecule on the PVDF membrane at 4° C. for 12 hours or more. After completion of the reaction, a secondary antibody (HRP-linked 2nd antibody) diluted with TBS-T supplemented with 5% skimmed milk was allowed to bind to the primary antibody at room temperature for 1 hour. Thereafter, the resultant was washed with TBS-T for 15 minutes, 3 or more times, and detection was then carried out using an enhanced chemiluminescence (ECL) system.
With regard to the compounds of the present invention (Example Compound 1 to Example Compound 47), whether or not the present compound can inhibit the binding between ALS-related mutant SOD1 and Derlin-1 in a cell by being added into a cell culture solution was examined according to a co-immunoprecipitation experiment. […]

T1 sequence (P00441 whole entry G94A, species assumed): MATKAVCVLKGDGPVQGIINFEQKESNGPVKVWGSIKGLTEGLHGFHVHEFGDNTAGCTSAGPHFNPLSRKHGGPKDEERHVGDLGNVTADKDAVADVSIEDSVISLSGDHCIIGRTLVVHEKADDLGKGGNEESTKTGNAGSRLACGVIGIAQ
T1 sequence (Q9BUN8 whole entry, species assumed, stated change not applied): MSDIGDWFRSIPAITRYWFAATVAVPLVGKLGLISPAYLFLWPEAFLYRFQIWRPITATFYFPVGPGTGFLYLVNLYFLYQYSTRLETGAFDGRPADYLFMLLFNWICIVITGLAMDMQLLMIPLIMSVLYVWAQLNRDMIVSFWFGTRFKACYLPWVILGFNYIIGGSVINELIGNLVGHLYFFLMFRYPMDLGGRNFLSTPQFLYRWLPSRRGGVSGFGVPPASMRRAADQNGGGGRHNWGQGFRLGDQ

Compound	Activity value (score)
Nc1c(C(=O)Nc2ccc(-c3cc(C(F)(F)F)cc(C(F)(F)F)c3)cc2)sc2nc(-c3ccncc3)ccc12 [Example 7]	1

Same assay, conditions: assay concentration 5 μM; HEK293A cells overexpressing Flag-SOD1 G93A and Derlin-1-HA

Compound	Activity value (score)
C=CCN(C(=O)c1sc2nc(-c3ccncc3)ccc2c1N)c1cc(F)ccc1F [Example 8, N-allyl-3-amino-N-(2,5-difluorophenyl)-6-(4-pyridinyl)thieno[2,3-b]pyridine-2-carboxamide]	1

Same assay, conditions: assay concentration 10 μM; HEK293A cells overexpressing Flag-SOD1 G93A and Derlin-1-HA

Compound	Activity value (score)
C/C=C/CN(C(=O)c1sc2nc(-c3cccnc3)ccc2c1N)c1ccccc1 [Example 5, 3-amino-N-(trans-2-butenyl)-N-phenyl-6-(3-pyridinyl)thieno[2,3-b]pyridine-2-carboxamide]	2

Same assay, conditions: assay concentration 20 μM; HEK293A cells overexpressing Flag-SOD1 G93A and Derlin-1-HA

Compound	Activity value (score)
Nc1c(C(=O)Nc2ccncc2)sc2nc(-c3cncnc3)ccc12 [Example 33, 3-amino-N-(4-pyridinyl)-6-(5-pyrimidinyl)thieno[2,3-b]pyridine-2-carboxamide]	1
Nc1c(C(=O)Nc2ccc(-c3cc(C(F)(F)F)cc(C(F)(F)F)c3)cc2)sc2nc(-c3cccnc3)ccc12 [Example 30, 3-amino-N-(3′,5′-bis(trifluoromethyl)-[1,1′-biphenyl]-4-yl)-6-(3-pyridinyl)thieno[2,3-b]pyridine-2-carboxamide]	1
Nc1c(C(=O)N(CC=C2CCCC2)c2ccccc2)sc2nc(-c3cccnc3)ccc12 [Example 40, 3-amino-N-(2-cyclopentylideneethyl)-N-phenyl-6-(3-pyridinyl)thieno[2,3-b]pyridine-2-carboxamide]	1
C=CCN(C(=O)c1sc2nc(-c3ccncc3)ccc2c1N)c1cccc(S(F)(F)(F)(F)F)c1 [Example 23, N-allyl-3-amino-N-(3-(pentafluoro-λ^6-sulfanyl)phenyl)-6-(4-pyridinyl)thieno[2,3-b]pyridine-2-carboxamide]	2
COc1ccc(N(CC=C(C)C)C(=O)c2sc3nc(-c4ccncc4)ccc3c2N)cc1 [Example 46, 3-amino-N-(4-methoxyphenyl)-N-prenyl-6-(4-pyridinyl)thieno[2,3-b]pyridine-2-carboxamide]	2
CCCN(C(=O)c1sc2nc(-c3cccnc3)ccc2c1N)c1ccc(F)c(F)c1F [Example 11, N-n-propyl-3-amino-N-(2,3,4-trifluorophenyl)-6-(3-pyridinyl)thieno[2,3-b]pyridine-2-carboxamide]	2
Nc1c(C(=O)Nc2ccc(C(F)(F)F)cc2)sc2nc(-c3cccnc3)ccc12 [Example 29, 3-amino-6-(3-pyridinyl)-N-(4-(trifluoromethyl)phenyl)thieno[2,3-b]pyridine-2-carboxamide]	1
Nc1c(C(=O)Nc2ccncc2)sc2nc(-c3ccncc3)ccc12 [Example 32, 3-amino-N-(4-pyridinyl)-6-(4-pyridinyl)thieno[2,3-b]pyridine-2-carboxamide]	1
CC1(C)CCN(C(=O)c2sc3nc(-c4cccnc4)ccc3c2N)c2ccccc21 [Example 41]	3
CC(C)=CCN(C(=O)c1sc2nc(-c3cccnc3)ccc2c1N)c1ccccc1 [Example 13, N-(3-methyl-2-butenyl)-3-amino-N-phenyl-6-(3-pyridinyl)thieno[2,3-b]pyridine-2-carboxamide]	2
C=CCN(C(=O)c1sc2nc(-c3cccnc3)ccc2c1N)c1cc(F)ccc1F [Example 17, N-allyl-3-amino-N-(2,5-difluorophenyl)-6-(3-pyridinyl)thieno[2,3-b]pyridine-2-carboxamide]	2
C#CCN(C(=O)c1sc2nc(-c3cccnc3)ccc2c1N)c1ccc(F)cc1 [Example 35, 3-amino-N-(4-fluorophenyl)-N-(prop-2-yn-1-yl)-6-(3-pyridinyl)thieno[2,3-b]pyridine-2-carboxamide]	1
Cc1cccc(C)c1NC(=O)c1sc2nc(-c3cccnc3)ccc2c1N [Example 25, 3-amino-N-(2,6-dimethylphenyl)-6-(3-pyridinyl)thieno[2,3-b]pyridine-2-carboxamide]	1
CCCN(C(=O)c1sc2nc(-c3cccnc3)ccc2c1N)c1ccccc1 [Example 10, N-n-propyl-3-amino-N-phenyl-6-(3-pyridinyl)thieno[2,3-b]pyridine-2-carboxamide]	2
COc1cccc(N(CC=C(C)C)C(=O)c2sc3nc(-c4ccncc4)ccc3c2N)c1 [Example 45, 3-amino-N-(3-methoxyphenyl)-N-prenyl-6-(4-pyridinyl)thieno[2,3-b]pyridine-2-carboxamide]	1
C=C(C)CN(C(=O)c1sc2nc(-c3ccncc3)ccc2c1N)c1ccccc1 [Example 47, 3-amino-N-metallyl-N-phenyl-6-(4-pyridinyl)thieno[2,3-b]pyridine-2-carboxamide]	2
C=CCN(C(=O)c1sc2nc(-c3cccnc3)ccc2c1N)c1ccc(I)cc1 [Example 12, N-allyl-3-amino-N-(4-iodophenyl)-6-(3-pyridinyl)thieno[2,3-b]pyridine-2-carboxamide]	2
C=CCN(C(=O)c1sc2nc(-c3cccnc3)ccc2c1N)c1cccc(S(F)(F)(F)(F)F)c1 [Example 21, N-allyl-3-amino-N-(3-(pentafluoro-λ^6-sulfanyl)phenyl)-6-(3-pyridinyl)thieno[2,3-b]pyridine-2-carboxamide]	2
Nc1c(C(=O)N2CCCCc3ccccc32)sc2nc(-c3cccnc3)ccc12 [Example 14, [3-amino-6-(3-pyridinyl)thieno[2,3-b]2-pyridinyl](2,3,4,5-tetrahydro-1H-benzo[b]azepin-1-yl)methanone]	2
CC(C)=CCN(C(=O)c1sc2nc(-c3cccnc3)ccc2c1N)c1ccncc1 [Example 39, 3-amino-N-prenyl-N-(4-pyridinyl)-6-(3-pyridinyl)thieno[2,3-b]pyridine-2-carboxamide]	1
C=CCN(C(=O)c1sc2nc(-c3ccncc3)ccc2c1N)c1ccc(F)c(F)c1 [Example 19, N-allyl-3-amino-N-(3,4-difluorophenyl)-6-(4-pyridinyl)thieno[2,3-b]pyridine-2-carboxamide]	2
C=CCN(C(=O)c1sc2nc(-c3cccnc3)ccc2c1N)c1ccc(F)cc1F [Example 15, N-allyl-3-amino-N-(2,4-difluorophenyl)-6-(3-pyridinyl)thieno[2,3-b]pyridine-2-carboxamide]	2
CC(C)=CCN(C(=O)c1ccc2nc(-c3cccnc3)ccc2c1N)c1ccccc1 [Example 42, 5-Amino-N-phenyl-N-prenyl-2-(pyridin-3-yl)quinoline-6-carboxamide]	1
Nc1c(C(=O)N(Cc2ccccc2)c2ccccc2)sc2nc(-c3cccnc3)ccc12 [Example 37, 3-amino-N-benzyl-N-phenyl-6-(3-pyridinyl)thieno[2,3-b]pyridine-2-carboxamide]	2
